According to ChEMBL document CHEMBL3885881, “DrugMatrix”:

Organism: Rattus norvegicus
Assay: DrugMatrix - Regimen: Daily Repeat
Assay type: toxicity, organism-based, Sprague-Dawley
Parameters: regimen Daily Repeat, gender Male, age 6-8 weeks
Settings: in vivo, po, 2 mg/kg, route oral GAVAGE, dose level High, vehicle 100 % WATER; for ABSOLUTE BASOPHIL / ABSOLUTE EOSINOPHIL / ABSOLUTE LYMPHOCYTE / ABSOLUTE MONOCYTE / ABSOLUTE SEGMENTED NEUTROPHIL / BASOPHIL / EOSINOPHIL / ERYTHROCYTE COUNT / HEMATOCRIT / HEMOGLOBIN / LEUKOCYTE COUNT / LYMPHOCYTE / MEAN CORPUSCULAR HEMOGLOBIN / MEAN CORPUSCULAR HEMOGLOBIN CONCENTRATION / MEAN CORPUSCULAR VOLUME / MONOCYTE / NEUTROPHIL / NUCLEATED RED BLOOD CELLS / PLATELET COUNT: tissue Blood; for ALANINE AMINOTRANSFERASE / ALBUMIN / ALKALINE PHOSPHATASE / ASPARTATE AMINOTRANSFERASE / BLOOD UREA NITROGEN / CARBON DIOXIDE / CHLORIDE / CHOLESTEROL / CREATININE / GLUCOSE / LACTATE DEHYDROGENASE / LIPASE / PHOSPHORUS / POTASSIUM / SODIUM / TOTAL BILIRUBIN / TOTAL PROTEIN / URIC ACID: tissue Plasma

O=[Se]([O-])[O-].[Na+].[Na+] [SODIUM SELENITE]
ABSOLUTE BASOPHIL (120 h, time 5 day): 0 CELLS/uL
ABSOLUTE EOSINOPHIL (120 h, time 5 day): 0 CELLS/uL
ABSOLUTE LYMPHOCYTE (120 h, time 5 day): 10507.33 CELLS/uL
ABSOLUTE MONOCYTE (120 h, time 5 day): 251 CELLS/uL
ABSOLUTE SEGMENTED NEUTROPHIL (120 h, time 5 day): 875 CELLS/uL
BASOPHIL (120 h, time 5 day): 0%
EOSINOPHIL (120 h, time 5 day): 0%
ERYTHROCYTE COUNT (120 h, time 5 day): 5.43 x10E6/uL
HEMATOCRIT (120 h, time 5 day): 33.4%
HEMOGLOBIN (120 h, time 5 day): 12.4 G/DL
LEUKOCYTE COUNT (120 h, time 5 day): 11.63 x10E3/uL
LYMPHOCYTE (120 h, time 5 day): 90.33%
MEAN CORPUSCULAR HEMOGLOBIN (120 h, time 5 day): 22.87 pg
MEAN CORPUSCULAR HEMOGLOBIN CONCENTRATION (120 h, time 5 day): 37.17 G/DL
MEAN CORPUSCULAR VOLUME (120 h, time 5 day): 61.53 fL
MONOCYTE (120 h, time 5 day): 2%
NEUTROPHIL (120 h, time 5 day): 7.67%
NUCLEATED RED BLOOD CELLS (120 h, time 5 day): 0 /100WBC
PLATELET COUNT (120 h, time 5 day): 896.33 x10E3/uL
ALANINE AMINOTRANSFERASE (120 h, time 5 day): 56.33 u/L
ALBUMIN (120 h, time 5 day): 4.77 G/DL
ALKALINE PHOSPHATASE (120 h, time 5 day): 396 u/L
ASPARTATE AMINOTRANSFERASE (120 h, time 5 day): 80.67 u/L
BLOOD UREA NITROGEN (120 h, time 5 day): 12.33 mg/dL
CARBON DIOXIDE (120 h, time 5 day): 33.33 mmol/L
CHLORIDE (120 h, time 5 day): 98.33 MEQ/L
CHOLESTEROL (120 h, time 5 day): 86.33 mg/dL
CREATININE (120 h, time 5 day): 0.14 mg/dL
GLUCOSE (120 h, time 5 day): 141 mg/dL
LACTATE DEHYDROGENASE (120 h, time 5 day): 84 u/L
LIPASE (120 h, time 5 day): 8.33 u/L
PHOSPHORUS (120 h, time 5 day): 13.2 mg/dL
POTASSIUM (120 h, time 5 day): 6.3 MEQ/L
SODIUM (120 h, time 5 day): 145.1 MEQ/L
TOTAL BILIRUBIN (120 h, time 5 day): 0.2 mg/dL
TOTAL PROTEIN (120 h, time 5 day): 6.87 G/DL
URIC ACID (120 h, time 5 day): 0.67 mg/dL
ABSOLUTE BASOPHIL ([…], time 14 day): 0 CELLS/uL
ABSOLUTE EOSINOPHIL ([…], time 14 day): 217 CELLS/uL
ABSOLUTE LYMPHOCYTE ([…], time 14 day): 17297 CELLS/uL
ABSOLUTE MONOCYTE ([…], time 14 day): 361.6 CELLS/uL
ABSOLUTE SEGMENTED NEUTROPHIL ([…], time 14 day): 2204.4 CELLS/uL
BASOPHIL ([…], time 14 day): 0%
EOSINOPHIL ([…], time 14 day): 1.2%
ERYTHROCYTE COUNT ([…], time 14 day): 6.02 x10E6/uL
HEMATOCRIT ([…], time 14 day): 35.24%
HEMOGLOBIN ([…], time 14 day): 13.22 G/DL
LEUKOCYTE COUNT ([…], time 14 day): 20.08 x10E3/uL
LYMPHOCYTE ([…], time 14 day): 85.8%
MEAN CORPUSCULAR HEMOGLOBIN ([…], time 14 day): 21.98 pg
MEAN CORPUSCULAR HEMOGLOBIN CONCENTRATION ([…], time 14 day): 37.54 G/DL
MEAN CORPUSCULAR VOLUME ([…], time 14 day): 58.52 fL
MONOCYTE ([…], time 14 day): 1.8%
NEUTROPHIL ([…], time 14 day): 11.2%
NUCLEATED RED BLOOD CELLS ([…], time 14 day): 0 /100WBC
PLATELET COUNT ([…], time 14 day): 1010.8 x10E3/uL
ALANINE AMINOTRANSFERASE ([…], time 14 day): 60.2 u/L
ALBUMIN ([…], time 14 day): 4.26 G/DL
ALKALINE PHOSPHATASE ([…], time 14 day): 330.2 u/L
ASPARTATE AMINOTRANSFERASE ([…], time 14 day): 119.4 u/L
BLOOD UREA NITROGEN ([…], time 14 day): 14 mg/dL
CARBON DIOXIDE ([…], time 14 day): 22.8 mmol/L
CHLORIDE ([…], time 14 day): 104.2 MEQ/L
CHOLESTEROL ([…], time 14 day): 62.8 mg/dL
CREATININE ([…], time 14 day): 0.21 mg/dL
GLUCOSE ([…], time 14 day): 199.6 mg/dL
LACTATE DEHYDROGENASE ([…], time 14 day): 281.2 u/L
LIPASE ([…], time 14 day): 8 u/L
PHOSPHORUS ([…], time 14 day): 13.28 mg/dL
POTASSIUM ([…], time 14 day): 5.95 MEQ/L
SODIUM ([…], time 14 day): 148.62 MEQ/L
TOTAL BILIRUBIN ([…], time 14 day): 0.16 mg/dL
TOTAL PROTEIN ([…], time 14 day): 6.16 G/DL
URIC ACID ([…], time 14 day): 2.08 mg/dL
